Laboratory results published in patent EP4759807A1, “PROTEOLYSIS TARGETING CHIMERA COMPOUND FOR DEGRADING IRAK4 AND USE THEREOF” (Shenzhen Zhongge Biological Technology Co., Ltd., priority 2023, dated 2025).
Structures can show the parent of a compound that is named as a salt. Where two headings read alike, the source gives them in different places.

Biological target: T1, IRAK4 (Homo sapiens, UniProt Q9NWZ3)
T1 sequence (Q9NWZ3 1-460): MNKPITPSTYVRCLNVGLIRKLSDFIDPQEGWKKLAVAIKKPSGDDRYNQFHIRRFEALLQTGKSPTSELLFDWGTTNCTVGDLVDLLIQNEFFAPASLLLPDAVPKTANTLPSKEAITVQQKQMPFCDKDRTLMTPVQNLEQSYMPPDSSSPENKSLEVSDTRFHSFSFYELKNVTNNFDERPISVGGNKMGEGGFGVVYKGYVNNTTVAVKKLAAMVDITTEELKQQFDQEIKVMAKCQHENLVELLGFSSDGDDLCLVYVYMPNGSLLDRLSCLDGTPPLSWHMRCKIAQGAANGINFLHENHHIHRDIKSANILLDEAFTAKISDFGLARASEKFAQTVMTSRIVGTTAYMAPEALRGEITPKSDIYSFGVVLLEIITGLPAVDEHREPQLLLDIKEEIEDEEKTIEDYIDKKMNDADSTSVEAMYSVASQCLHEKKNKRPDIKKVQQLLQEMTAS
Assay: Hibit fluorescence detection of proteolysis (IRAK4-HiBiT in HEK293T cells)
Format: cell-based
Set-up: host or cells: HEK293T (ATCC)
In short: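 Degradation read-out: luminescence from lytic HiBiT detection (15 min, room temperature) after 24 h compound exposure (37 °C, 5% CO2) of HEK293T cells transiently expressing IRAK4 fused to a HiBiT tag. Data fitted to a bell-shaped four-parameter model giving two EC50 values.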

[1] = IRAK4-HiBiT, HEK293T cells, 24 h
[2] = IRAK4-HiBiT, HEK293T cells, 24 h, read-out: DC50

Row | Structure (SMILES) | Dmax (HEK-293T) [%] | DC50 [1] [nM] | Dmax (HEK-293T, IRAK4-HiBiT, HEK293T cells, 24 h, read-out: Dmax) [%] | DC50 [2] [nM] | Dmax [1]
1 | Cn1c(=O)n(C2CCC(=O)NC2=O)c2cccc(N3CCC(N4CCN(C[C@H]5CC[C@H](n6cc(-n7cc(-c8cnn9ccc(N%10CCS(=O)(=O)CC%10)nc89)nn7)c(C(F)F)n6)CC5)CC4)CC3)c21 (stereo partly shown) [Example 111, 3-(4-(4-(((1r,4r)-4-(3-(difluoromethyl)-4-(4-(5-(1,1-dioxodimorpholinyl)pyrazolo[1,5-a]pyrimidin-3-yl)-1H-1,2,3-triazol-1-yl)-1H-pyrazol-1-ylcyclohexyl)methyl)piperazin-1-yl)piperidin-1-yl)-3-methyl-2-oxo-2,3-dihydro-1H-benzo[d]imidazol-1-yl)pyridine-2,6-dione] | > 80 | 0.5 to 1 | – | – | –
2 | NC(=O)c1cnn2c(-c3cn(-c4cn(C5CCN(CC6CCN(c7ccc(C(=O)NC8CCC(=O)NC8=O)c(F)c7)CC6)CC5)nc4C(F)F)nn3)ccc2c1 (stereo not shown) [Example 95, 7-{1-[3-(difluoromethyl)-1-{1-[(1-{4-[(2,6-dioxopiperidin-3-yl)aminocarbonyl]-3-fluorophenyl}piperidin-4-yl)methyl]piperidin-4-yl}-1H-pyrazol-4-yl]-1H-1,2,3-triazol-4-yl}pyrrolo[1,2-b]pyridazine-3-carboxamide] | – | – | < 60 | > 5 | –
3 | Cn1c(=O)n(C2CCC(=O)NC2=O)c2cccc(N3CC4(CCN(C[C@H]5CC[C@H](n6cc(-n7cc(-c8cnn9ccc(N%10CCOCC%10)nc89)nn7)c(C(F)F)n6)CC5)CC4)C3)c21 (stereo partly shown) [Example 43, 3-(4-(7-(((1r,4r)-4-(3-(difluoromethyl)-4-(4-(5-morpholinopyrazolo[1,5-a]pyrimidin-3-yl)-1H-1,2,3-triazol-1-yl)-1H-pyrazol-1-yl)cyclohexyl)methyl)-2,7-diazaspiro[3.5]nonan-2-yl)-3-methyl-2-oxo-2,3-dihydro-1H-benzo[d]imidazol-1-yl)piperidine-2,6-dione] | > 80 | < 0.5 | – | – | –
4 | Cn1c(=O)n(C2CCC(=O)NC2=O)c2cccc(N3CCOC4(CCN(C[C@H]5CC[C@H](n6cc(-n7cc(-c8cnn9ccc(N%10CCOCC%10)nc89)nn7)c(C(F)F)n6)CC5)CC4)C3)c21 (stereo partly shown) [Example 38] | < 60 | < 0.5 | – | – | –
5 | CN(CC1CCN(CCC#Cc2cccc3c2n(C)c(=O)n3C2CCC(=O)NC2=O)CC1)C[C@H]1CC[C@H](n2cc(-n3cc(-c4cnn5ccc(N6CCOCC6)nc45)nn3)c(C(F)F)n2)CC1 (stereo partly shown) [Example 25] | < 60 | < 0.5 | – | – | –
6 | Cn1c(=O)n(C2CCC(=O)NC2=O)c2cccc(N3C4CCC3CN(C[C@H]3CC[C@H](n5cc(-n6cc(-c7ccc8cc(C(N)=O)cnn78)nn6)c(C(F)F)n5)CC3)C4)c21 (stereo partly shown) [Example 92, 7-(1-(3-(difluoromethyl)-1-((1r,4r)-4-(8-(1-(2,6-dioxopiperidin-3-yl)-3-methyl-2-oxo-2,3-dihydro-1H-benzo[d]imidazol-4-yl)-3,8-diazabicyclo[3.2.1]oct-3-yl)methyl)cyclohexyl-1H-pyrazol-4-yl)-1H-1,2,3-triazol-4-yl)pyrrolo[1,2-b]pyridazine-3-carboxamide] | > 80 | 1 to 5 | – | – | –
7 | CN1CCN(c2ccn3ncc(-c4cn(-c5cn([C@H]6CC[C@H](CN7CCC8(CCN(c9cccc%10c9n(C)c(=O)n%10C9CCC(=O)NC9=O)CC8)C7)CC6)nc5C(F)F)nn4)c3n2)CC1 (stereo partly shown) [Compound 232] | > 80 | – | – | 0.5 to 1 | –
8 | CN1CCN(c2ccn3ncc(-c4cn(-c5cn([C@H]6CC[C@H](CN7CCC(N8CCN(c9cccc%10c9n(C)c(=O)n%10C9CCC(=O)NC9=O)CC8)CC7)CC6)nc5C(F)F)nn4)c3n2)CC1 (stereo partly shown) [Compound 229] | 60 to 70 | – | – | < 0.5 | –
9 | Cl.Cn1c(=O)n(C2CCC(=O)NC2=O)c2cccc(N3CCN(C4CCN(C[C@H]5CC[C@H](n6cc(-n7cc(-c8cnn9ccc(N%10CCNCC%10)nc89)nn7)c(C(F)F)n6)CC5)CC4)CC3)c21 (stereo partly shown) [Example 131] | – | – | – | – | A (Dmax ≥ 80%)
10 | Cn1c(=O)n(C2CCC(=O)NC2=O)c2cccc(NC(=O)N3CCC4(CCN(C[C@H]5CC[C@H](n6cc(-n7cc(-c8cnn9ccc(N%10CCOCC%10)nc89)nn7)c(C(F)F)n6)CC5)C4)CC3)c21 (stereo partly shown) [Example 18, 2-(((1r,4r)-4-(3-(difluoromethyl)-4-(4-(5-morpholinopyrazolo [1,5-a]pyrimidin-3-yl)-1H-1,2,3-triazol-1-yl)-1H-pyrazol-1-yl)cyclohexyl)methyl)-N-(1-(2,6-dioxopiperidin-3-yl)-3-methyl-2-oxo-2,3-dihydro-1H-benzo[d]imidazol-4-yl)-2,8-diazaspiro[4.5]decan-8-carboxamide] | > 80 | – | – | > 5 | –
11 | Cn1c(=O)n(C2CCC(=O)NC2=O)c2cccc(N3CC(N4CCN(C[C@H]5CC[C@H](n6cc(-n7cc(-c8ccc9cc(C(N)=O)cnn89)nn7)c(C(F)F)n6)CC5)CC4)C3)c21 (stereo partly shown) [Example 63, 7-(1-(3-(difluoromethyl)-1-((1r,4r)-4-((4-(1-(1-(2,6-dioxopiperidin-3-yl)-3-methyl-2-oxo-2,3-dihydro-1H-benzo[d]imidazol-4-yl)azetidin-3-yl)piperazin-1-yl)methyl)cyclohexyl)-1H-pyrazol-4-yl)-1H-1,2,3-triazol-4-yl)pyrrolo[1,2-b]pyridazine-3-carboxamide] | 60 to 70 | < 0.5 | – | – | –
12 | Cn1c(=O)n(C2CCC(=O)NC2=O)c2cccc(CN3CC4(CCN(C[C@H]5CC[C@H](n6cc(-n7cc(-c8cnn9ccc(N%10CCOCC%10)nc89)nn7)c(C(F)F)n6)CC5)CC4)C3)c21 (stereo partly shown) [Example 13, 3-(4-((7-(((1r,4r)-4-(3-(difluoromethyl)-4-(4-(5-morpholinopyrazolo[1,5-a]pyrimidin-3-yl)-1H -1,2,3-triazol-1-yl)-1H-pyrazol-1-yl)cyclohexyl)methyl)-2,7-diazaspiro[3.5]nonan-2-yl)methyl)-3-methyl-2-oxo-2,3-dihydro-1H-benzo[d]imidazol-1-yl)piperidine-2,6-dione] | > 80 | < 0.5 | – | – | –
13 | Cn1c(=O)n(C2CCC(=O)NC2=O)c2cccc(N3CCC4(CCN(C[C@H]5CC[C@H](n6cc(-n7cc(-c8cnn9ccc(N%10CCNCC%10)nc89)nn7)c(C(F)F)n6)CC5)CC4)CC3)c21 (stereo partly shown) [Example 129, 3-(4-(9-(((1r,4r)-4-(3-(difluoromethyl)-4-(4-(5-(piperazin-1-yl)pyrazolo[1,5-a]pyrimidin-3-yl)-1H-1,2,3-triazol-1-yl)-1H-pyrazol-1-yl)cyclohexyl)methyl)-3,9-diazaspiro[5.5]undecan-3-yl)-3-methyl-2-oxo-2,3-dihydro-1H-benzo[d]imidazol-1-yl)piperidine-2,6-dione dihydrochloride] | > 80 | < 0.5 | – | – | –
14 | Cn1c(=O)n(C2CCC(=O)NC2=O)c2cccc(N3CCC4(CCN(CC5CCC(n6cc(-n7cc(-c8cnn9ccc(N%10CCC(O)CC%10)nc89)nn7)c(C(F)F)n6)CC5)CC4)C3)c21 (stereo not shown) [Example 137, 3-(4-(8-(((1r,4r)-4-(3-(difluoromethyl)-4-(4-(5-(4-hydroxypiperidin-1-yl))pyrazolo[1,5-a]pyrimidin-3-yl)-1H-1,2,3-triazol-1-yl)-1H-pyrazol-1-yl)cyclohexyl)methyl)-2,8-diazaspiro[4.5]dec-2-yl)-3-methyl-2-oxo-2,3-dihydro-1H-benzo[d]imidazol-1-yl)piperidine-2,6-dione] | – | – | – | < 0.5 | A (Dmax ≥ 80%)
15 | Cn1c(=O)n(C2CCC(=O)NC2=O)c2cccc(N3CCC4(CCN(C[C@H]5CC[C@H](n6cc(-n7cc(-c8cnn9ccc(NCC%10CC%10)nc89)nn7)c(C(F)F)n6)CC5)CC4)C3)c21 (stereo partly shown) [Example 109] | > 80 | 0.5 to 1 | – | – | –
16 | CN(Cc1cccc2c1n(C)c(=O)n2C1CCC(=O)NC1=O)CC1CCN(C[C@H]2CC[C@H](n3cc(-n4cc(-c5cnn6ccc(N7CCOCC7)nc56)nn4)c(C(F)F)n3)CC2)CC1 (stereo partly shown) [Example 3, 3-(4-((((1-(((1r,4r)-4-(3-(difluoromethyl)-4-(4-(5-morpholinopyrazolo[1,5-a]pyrimidin-3-yl)-1H-1,2,3-triazol-1-yl)-1H-pyrazol-1-yl)cyclohexyl)methyl)piperidin-4-yl)methyl)(methyl)amino)methyl)-3-methyl-2-oxo-2,3-dihydro-1H-benzo[d]imidazol-1-yl)piperidine-2,6-dione] | 60 to 70 | < 0.5 | – | – | –
17 | C[C@@H]1CN(c2cccc3c2n(C)c(=O)n3C2CCC(=O)NC2=O)CCN1C[C@H]1CC[C@H](n2cc(-n3cc(-c4cnn5ccc(N6CCOCC6)nc45)nn3)c(C(F)F)n2)CC1 (stereo partly shown) [Example 50] | 60 to 70 | 0.5 to 1 | – | – | –
18 | Cn1c(=O)n(C2CCC(=O)NC2=O)c2cccc(N3CCC4(CCCN(C[C@H]5CC[C@H](n6cc(-n7cc(-c8cnn9ccc(N%10CCOCC%10)nc89)nn7)c(C(F)F)n6)CC5)C4)CC3)c21 (stereo partly shown) [Example 53, 3-(4-(2-(((1r,4r)-4-(3-(difluoromethyl)-4-(4-(5-morpholinopyrazolo[1,5-a]pyrimidin-3-yl)-1H-1,2,3-triazol-1-yl)-1H-pyrazol-1-yl)cyclohexyl)methyl)-2,9-diazaspiro[5.5]undecan-9-yl)-3-methyl-2-oxo-2,3-dihydro-1H-benzo[d]imidazol-1-yl)piperidine-2,6-dione] | 70 to 80 | 0.5 to 1 | – | – | –
19 | Cn1c(=O)n(C2CCC(=O)NC2=O)c2cccc(C(=O)N3CCC(NC[C@H]4CC[C@H](n5cc(-n6cc(-c7cnn8ccc(N9CCOCC9)nc78)nn6)c(C(F)F)n5)CC4)CC3)c21 (stereo partly shown) [Example 29] | 70 to 80 | > 5 | – | – | –
